Reference: ChEMBL document CHEMBL1201862, “PubChem BioAssay data set” (2004)
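Tested at 5 concentrations; 48 h exposure; 96-well plates; endpoints linearly interpolated, else capped at highest concentration. GI50 is the concentration that inhibits growth by half.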 Active and inactive are the calls of the source. Rule as the data show it: active = GI50 up to about 1.1 µM and inactive = higher.

Columns and labels:
Assay in all cases: inhibition of tumour cell growth, NCI panel, 48 h
A549 = test system: A549
COLO 205 = test system: COLO 205
HCT-116 = test system: HCT-116
HT-29 = test system: HT-29
KM12 = test system: KM12
LOX IMVI = test system: LOX IMVI
M14 = test system: M14
Malme-3M = test system: Malme-3M
NCI-H226 = test system: NCI-H226
NCI-H23 = test system: NCI-H23
NCI-H522 = test system: NCI-H522
OVCAR-5 = test system: OVCAR-5
SF-539 = test system: SF-539
SK-MEL-2 = test system: SK-MEL-2
SK-MEL-5 = test system: SK-MEL-5
SN12C = test system: SN12C
SW-620 = test system: SW-620
U-251 = test system: U-251
UACC-257 = test system: UACC-257
UACC-62 = test system: UACC-62

Measured: GI50

Cc1ccc(S(=O)(=O)NNC2Oc3cc4c(cc3C(c3ccccc3O)C2C)OCO4)cc1 (stereo unspecified)
inactive: A549 8.36 µM | COLO 205 14.7 µM | HCT-116 10.4 µM | HT-29 14.3 µM | KM12 12.2 µM | LOX IMVI 15.2 µM | M14 13.4 µM | Malme-3M 12.2 µM | NCI-H226 12.4 µM | NCI-H23 15.7 µM | NCI-H522 12.4 µM | OVCAR-5 16.1 µM | SF-539 16.9 µM | SK-MEL-2 9.62 µM | SK-MEL-5 14.5 µM | SN12C 15.3 µM | SW-620 13.7 µM | U-251 10.3 µM | UACC-257 10.8 µM | UACC-62 15.7 µM

CC(=O)O[C@H]1[C@@H](OC(C)=O)C(C)(C)/C=C/[C@H](C)C(=O)[C@@]2(OC(C)=O)C[C@@](C)(OC(C)=O)[C@H](OC(C)=O)[C@@H]2[C@H]2OC(=O)CC[C@@]2(OC(=O)c2ccccc2)[C@@H]1OCC(C)C
inactive: COLO 205 5.15 µM | HCT-116 19.5 µM | HT-29 13.5 µM | KM12 39.1 µM | LOX IMVI > 100 µM | M14 15.6 µM | Malme-3M 22.9 µM | NCI-H226 92 µM | NCI-H23 38.7 µM | NCI-H522 32.4 µM | OVCAR-5 > 100 µM | SF-539 5.47 µM | SK-MEL-2 > 100 µM | SK-MEL-5 33.5 µM | SN12C > 100 µM | SW-620 10.7 µM | U-251 80.4 µM | UACC-257 85.1 µM | UACC-62 46.5 µM

Cn1c(=O)ccc2c(=O)c3ccccc3oc21
inactive: A549 > 100 µM | COLO 205 > 100 µM | HCT-116 > 100 µM | HT-29 > 100 µM | KM12 > 100 µM | LOX IMVI > 100 µM | M14 > 100 µM | Malme-3M > 100 µM | NCI-H226 > 100 µM | NCI-H23 > 100 µM | NCI-H522 > 100 µM | OVCAR-5 > 100 µM | SF-539 > 100 µM | SK-MEL-2 > 100 µM | SK-MEL-5 > 100 µM | SN12C > 100 µM | SW-620 > 100 µM | U-251 > 100 µM | UACC-62 > 100 µM

CC(=O)Nc1ccc(C2=N/C(=C\c3ccc(Cl)c(Cl)c3)C(=O)O2)cc1
inactive: A549 > 100 µM | COLO 205 > 100 µM | HCT-116 > 100 µM | HT-29 > 100 µM | KM12 > 100 µM | LOX IMVI 30 µM | M14 > 100 µM | Malme-3M > 100 µM | NCI-H226 > 100 µM | NCI-H23 > 100 µM | NCI-H522 > 100 µM | OVCAR-5 > 100 µM | SF-539 > 100 µM | SK-MEL-2 > 100 µM | SK-MEL-5 > 100 µM | SN12C > 100 µM | SW-620 > 100 µM | U-251 > 100 µM | UACC-257 > 100 µM | UACC-62 > 100 µM

CC1C(NNC(N)=O)Oc2cc3c(cc2C1c1ccccc1O)OCO3 (stereo unspecified)
inactive: A549 31.8 µM | COLO 205 > 10 µM | HCT-116 26.2 µM | HT-29 34 µM | KM12 31.2 µM | LOX IMVI 46.7 µM | M14 39.3 µM | Malme-3M 28.6 µM | NCI-H226 34.6 µM | NCI-H23 89.9 µM | NCI-H522 14.8 µM | OVCAR-5 > 100 µM | SF-539 24.2 µM | SK-MEL-2 35.6 µM | SK-MEL-5 27.4 µM | SN12C 48.3 µM | SW-620 16.6 µM | U-251 38.7 µM | UACC-257 35.7 µM | UACC-62 30.4 µM

CCCCCCCCCCCCCCCCOCC(COP(=O)([O-])OCC[N+](C)(C)C)OCCCCCCCCCCCCCCCC (stereo unspecified)
inactive: A549 > 10 µM | COLO 205 > 100 µM | HCT-116 > 100 µM | HT-29 > 100 µM | KM12 > 100 µM | LOX IMVI > 100 µM | Malme-3M > 100 µM | NCI-H226 > 100 µM | NCI-H23 > 100 µM | NCI-H522 > 100 µM | OVCAR-5 > 100 µM | SF-539 > 100 µM | SK-MEL-2 > 100 µM | SK-MEL-5 > 100 µM | SN12C > 100 µM | SW-620 > 100 µM | U-251 > 100 µM | UACC-257 > 100 µM | UACC-62 > 100 µM

CC(C)(CCCCC(C)(C)NC1=NCCO1)NC1=NCCO1
inactive: A549 > 10 µM | COLO 205 > 10 µM | HCT-116 > 10 µM | HT-29 > 10 µM | KM12 > 10 µM | LOX IMVI > 10 µM | M14 > 10 µM | Malme-3M > 10 µM | NCI-H226 > 10 µM | NCI-H23 > 10 µM | NCI-H522 > 10 µM | OVCAR-5 > 10 µM | SF-539 > 10 µM | SK-MEL-2 > 10 µM | SK-MEL-5 > 10 µM | SN12C > 10 µM | SW-620 > 10 µM | U-251 > 10 µM | UACC-62 > 10 µM
